# Source: PMC10385664, “Projection of Target Drug Particle Size in Oral Formulations Using the Refined Developability Classification System (rDCS)” (Pharmaceutics, 2023)
# Key:
# [1] = Shake-flask n-octanol/water logDpH7.4 with HPLC-UV; type: physicochemical; conditions: octanol / 0.01 M phosphate buffer pH 7.4, 25 °C
# Procedure: LogDpH7.4 values of the three APIs were determined at Pion Inc (UK) Ltd. (Forest Row, UK) using a shake-flask screening method and high performance liquid chromatography with UV detection (HPLC-UV). Samples containing the API were equilibrated between octanol-saturated 0.01 M phosphate buffer at pH 7.4 and buffer-saturated octanol and analyzed by HPLC-UV. The experimental details are provided in Supplementary Materials. Measured logDpH7.4 values are presented as means (±SD) and were compared to literature values as well as in silico predictions using the software ADMET Predictor version 9 and ACD/Labs Release 2021.1.2. […]
# version 9 (Simulations Plus Inc., Lancaster, CA, USA) and ACD/ Labs Release 2021.1.2 (Advanced Chemistry Devel opment Inc., Toronto, Canada) with the molecular structure as input.
# S.2.3. n‐Octanol/Water Distribution Coefficient (logDpH7.4) […]
# screening method and HPLC analysis. Samples (n = 3) were prepared by addition of a 10 mM API stock solution in DMSO to an oct anol saturated 0.01 M phosphate buffer at pH 7.4 to prepare a 1:10 dilution (ionic strength adjusted with 0.15 M NaCl). Buffer saturated octanol was added (1:1) to prepare pa rtiti on systems, which were agitated on an electronic shake pla te for 4 h at 25 ± 2°C. All samples were centrifuged, and aqueous and octanol layers were separately transferred to 96 well plat es. Both layers of each replicate were analyzed with a standard HPLC gradient method (Table S3). A Waters Acquity H‐Class Plus System consisting of a sample manager, a quaternary solvent manager and a photodiode array (PDA) detector was used. All HPLC data was collected and processed using the software Empower® version 3.0. Measured logDpH7.4 values are presented as means with standard deviation and were compared to literature va lu es and predictions using the software ADMET Predictor version 9 and ACD/Labs Release 2021.1.2 wit h the molecular structure as input.
# Table S3. Standard HP LC method for the determination of logDpH7.4 values.
# System Waters Acquity H‐Class Plus System […]
# [2] = Shake-flask equilibrium solubility in FaSSIF V1; type: physicochemical; conditions: for solubility thermodynamic at 24 h: pH 6.5, thermodynamic from solid, FaSSIF V1, pH 6.50 ± 0.05, 37 °C, read-out: CS FaSSIF V1 (thermodynamic solubility)
# Procedure: Equilibrium solubilities of the three APIs in FaSSIF V1 were measured with the shake-flask method, following the ICH M9 guideline on BCS-based biowaivers. Briefly, an excess amount of each API was weighed into a 5 mL vial and the assay medium (FaSSIF V1) was added. The resulting suspensions were incubated at 37.0 ± 0.5 °C (Memmert Incubator IN750, Memmert GmbH + Co. KG, Schwabach, Germany) and agitated for 24 h at 25 rpm (LABINCO LD76 Digital Rotary Mixer, Labinco BV, Breda, The Netherlands). At 2, 4, 6 and 24 h, samples were drawn and filtered through Acrodisc 13 mm with 0.45 µm PTFE filters (Pall Corporation, Port Washington, NY, USA) after establishing that adsorption of the APIs onto the filters was less than 5%. Before sampling, the suspensions were checked visually for the presence of solid particles and the pH was measured (Metrohm 780 pH Meter, Metrohm AG, Herisau, Switzerland). All measured pH values were within the specified range of pH 6.50 ± 0.05, so no pH adjustment was necessary. The filtrates were diluted with a 1:1 mixture of ACN and Milli-Q water for analysis using ultra-performance liquid chromatography with UV detection (UPLC-UV).
# XRPD patterns of the residual solids were compared to the starting material and literature profiles. A differential scanning calorimetry (DSC) analysis of the input materials was additionally performed. Istradefylline samples were protected from light in all studies using amber vials and aluminum foil to prevent photolysis. The experimental details of the UPLC-UV methods and solid state analyses can be found in Supplementary Materials.
# The solubility experiments were performed in triplicate (n = 3) and solubilities are presented as means (± SD). The mean values were used as input for the rDCS and rtarget calculations.
# S.2.4. rDCS Standard Investigations: Solubility Studies
# Samples from the solubility studies were analyzed with UPLC‐UV analysis. For voriconazole and lemborexant a Waters Acquity UPLC System consisting of a sample manager, a binary solvent manager, and a PDA detector was used (Waters Corporation, Milford, USA). For istradefylline a Waters Acquity UPLC H‐Class System consisting of a sample manager, a quarternary solvent manager, and a PDA detector was used (Waters Corporation, Milford, MA , USA). The chromatograms were recorded and processed using the software Empower® version 3.0. Representative chromatograms for each API are shown in […]
# the FaSSIF V1 solubility study were collected and examined using X‐ray powder diffraction (XRPD) analysis to detect solution‐mediated solid state changes. After 24 h, 1 to 5 mg of the residual solid was collected, pl aced on a zero‐background holder and allowed to sit at room temperature for 2 h. […]
# [3] = Theoretical IDR from the Levich equation with solubility as input; conditions: FaSSIF V1
# From the text: Dissolution/Transit Balance: Derivation of kdiss based on Intrinsic Dissolution Rate In addition to Equation (S1) (utilizing hdisk and Adisk ra ther than hparticle and Apowder), the Levich equation (Equation (S12)) [11] applies for the dissolution from a rotating disk with a constant surface area under sink conditions and the assumption of convective diffusion without reaction as dissolution mechanism:
# where IDR is the intrinsic dissolution rate, D is the diffusion coefficient, ν is the kinematic viscosit y, ω is the rotational velocity and CS is the thermodynamic solubility. The equation can be rewritten to estimate the IDR using the rotational speed of the compressed disk in revolutions per minut e (Equation (S13Error!
# For this, a unit conversion factor of 30/π must be applied for the conversion of ω in rad∙s–1 to revolutions per minut e (RPM) in min‐1.
# The dissolution rate from the disk surface can be calculated via multiplication of the IDR by the disk surface area Adisk (Equation (S14)):
# Equation (S1) (adjusted to the dissolution from a disk surface) and Equation (S14) (Levich equation) were equated to obtain Equation (S15).
# Rearrangement of Equation (S15) for hdisk results in an equation for the thickness of the aqueous boundary layer (ABL) of the rotating disk (hdisk) under sink conditions (Equation (S16)): […]
# [4] = method not disclosed; cited from earlier work
compound,measurement,setting,value
"CCn1c(=O)c2c(nc(/C=C/c3ccc(OC)c(OC)c3)n2C)n(CC)c1=O [Istradefylline, istradefylline]",logD at 4 h,[1],2.96 ± 0.03
same,solubility thermodynamic at 24 h,[2],3.59 ± 0.05 µg/mL
same,theoretical IDR (Levich equation with CS as input),[3],0.346 ± 0.005 µg/min/cm^2
"Cc1ncc(OC[C@@]2(c3cccc(F)c3)C[C@H]2C(=O)Nc2ccc(F)cn2)c(C)n1 [Lemborexant, lemborexant]",logD at 4 h,[1],3.04 ± 0.05
same,solubility thermodynamic at 24 h,[2],23.3 ± 0.1 µg/mL
same,theoretical IDR (Levich equation with CS as input),[3],2.24 ± 0.01 µg/min/cm^2
same,Literature logP,[4],3.70 [33]
"C[C@@H](c1ncncc1F)[C@](O)(Cn1cncn1)c1ccc(F)cc1F [Voriconazole, voriconazole]",logD at 4 h,[1],1.66 ± 0.03
same,solubility thermodynamic at 24 h,[2],827 ± 6 µg/mL
same,solubility at 24 h,"[2]; pH 6.5, Excel template input, FaSSIF V1, read-out: Estimate of intestinal solubility (CS)",827 µg/mL
same,Literature logP,[4],1.80 [32]
